Consider two molecules from ChEMBL document CHEMBL5230129, “Antibacterial activities with the structure-activity relationship of coumarin derivatives” (2020).

What all share (assay type): functional
One experiment deals with Staphylococcus aureus. As to the kind of experiment: Antibacterial activity against Staphylococcus aureus assessed as zone of inhibition incubated for 24 hrs by agar diffusion assay.
The test system of another experiment is Proteus vulgaris. As to the kind of experiment: Antibacterial activity against Proteus vulgaris assessed as zone of inhibition incubated for 24 hrs by agar diffusion assay.
The test system of the next experiment is Bacillus subtilis. In words: Antibacterial activity against Bacillus subtilis assessed as zone of inhibition incubated for 24 hrs by agar diffusion assay.
In a further experiment the test system is Escherichia coli. As to the kind of experiment: Antibacterial activity against Escherichia coli assessed as inhibition of bacterial growth.

Converted amounts (≈) assume the structure as drawn.

In the case of `O=C(/C=C/c1cc(/N=N\c2ccc(Cl)cc2)ccc1O)c1cc2ccccc2oc1=O`, the “inhibition zone (IZ)” value in the experiment on Staphylococcus aureus, in the experiment on Proteus vulgaris and in the experiment with Bacillus subtilis was greater than 17 mm throughout.
Consider `COc1ccc(C(=O)C(c2c(O)c3ccccc3oc2=O)N2CCCCC2)cc1` (centres undefined), for which the minimum inhibitory concentration (MIC) in the experiment on Escherichia coli turned out to be 6.25 µg/mL (≈ 15.9 µM).
